These results are taken from ChEMBL document CHEMBL1127526, “A comparison of the cytotoxic and physical properties of aziridinyl quinone derivatives based on the pyrrolo[1,2-a]benzimidazole and pyrrolo[1,2-a]indole ring systems” (J Med Chem, 1994).

A short description of this test: The highest concentration employed in the cytotoxicity assay was reported. It counts as functional.

For `CC(=O)OC1CCn2c1nc1c2C(=O)C(C)=C(N2CC2)C1=O` (stereo unspecified), the Concentration was 1 M.
